# Laboratory results reported in patent publication US20200316021A1, “Dosing Regimen of Siponimod” (NOVARTIS AG, priority 2017, published 2020).
# Legend:
# [1] = siponimod single dose study (SAD study) in healthy volunteers; assay type: in vivo; conditions: healthy subjects
# [2] = tested on: Absolute Lymphocyte Count (ALC); assay: multiple ascending dosing study (MAD study) in healthy subjects: decline of Absolute Lymphocyte Count; assay type: in vivo, human; conditions: 0.3 mg to 10 mg dose
# Procedure: (§1) In another study in healthy subjects siponimod was administered in multiple doses, i.e. 0.3, 1, 2.5, 10 and 20 mg, over 28 days (multiple ascending dosing study, MAD study).
# Amongst the various potential factors which may contribute to the reduction of inflammation, and which may therefore contribute to the efficacy of a treatment by siponimod, one important factor is the reduction of the Absolute Lymphocyte Count (ALC), being ALC known to play an important role in the inflammatory processes, including those in the brain. The exact mechanism by which an S1P receptor modulation may mitigate stroke pathophysiology is/still not fully elucidated and thus, besides the Absolute Lymphocyte Count related effect (ALC-related effect), other potential mechanisms may play a role.
# [3] = multiple ascending dosing study (MAD study) in healthy subjects: adverse events; assay type: in vivo, human; conditions: 20 mg multiple dose over 28 days
# Procedure: as §1
# [4] = multiple-dose titration clinical study in healthy subjects: daily chronotropic effects (heart rate); assay type: in vivo, human
# Procedure: S1P receptor modulators, as mentioned above, are known to cause dose dependent transient decrease in heart rate within 2-3 hours of drug intake (Legangneux et al 2012, Hoch et al 2014). In order to evaluate on how to best mitigate the bradyarrhythmic risk of siponimod, a multiple-dose titration clinical study in healthy subjects was run.
# The primary objective of this study was to measure the daily chronotropic effects of two siponimod dose-titration regimens (from 0.25 mg to 10 mg; Dose Titration (DT) 1# and 2#, respectively) compared to daily chronotropic effects of oral siponimod 10 mg (fixed dose, once daily) and placebo over 12 days. The heart rate (HR) changes have been compared between subjects exposed to 10 mg siponimod once daily (QD) with or without 2 different up-titration schemes. The titration scheme of this study was: • DT 1#: Day 1: 0.25 mg; Day 2: 0.25 mg; Day 3: 0.25 mg; Day 4: 0.5 mg; Day 5: 1.0 mg; Day 6: 2.0 mg; Day 7: 4.0 mg; Day 8: 8.0 mg and from Day 9 to Day 12: 10.0 mg daily. • DT 2#: Day 1: 0.25 mg; Day 2: 0.25 mg; Day 3: 0.5 mg; Day 4: 0.75 mg; Day 5: 1.25 mg; Day 6: 2.0 mg; Day 7: 3.0 mg; Day 8: 5.0 mg; from Day 9 to Day 12: 10.0 mg daily.
# This effect was maintained until end of treatment on Day 12. […] It was then concluded that both titration regimens effectively attenuated the initial bradycardia observed on Day 1 of treatment with siponimod 10 mg daily fixed-dose.
# [5] = phase II dose finding study in relapsing-remitting multiple sclerosis (CBAF312A2201), MRI brain lesion parameters; assay type: in vivo, human; conditions: RRMS patients
# Procedure: In a phase II dose finding study of siponimod in patients with relapsing-remitting multiple sclerosis (CBAF312A2201) safety, tolerability and efficacy on magnetic resonance imaging (MRI) brain lesion parameters were evaluated. The dose response curve for the MRI-based efficacy of siponimod given orally once daily compared with placebo was determined.
# The dose-response curve as defined by the primary endpoint, favored the upper part of this range, i.e. a dose in the range of siponimod 2 mg, since efficacy seemed to decrease with lower doses. Siponimod achieved positive results in a clinical trial for the treatment of RRMS patients (Selmaj et al., Lancet Neurol, 2013, 12, 756-767) and is currently being investigated in an ongoing phase III study (EXPAND) in patients with SPMS. The dose of 2 mg of siponimod was the chosen dose for this follow up phase III study.
# [6] = i.v. versus oral siponimod study in healthy subjects (absolute bioavailability): pharmacokinetics; assay type: in vivo, human
# Procedure: (§2) A comparison of bradyarrhythmic effects (H R, AVB, SP) of a 1 mg oral dose from previous studies and a 1 mg/day i.v. dose infused over 24 h in healthy subjects supported the hypothesis that such effects are related to the slope of the concentration-time curve.
# In said study with siponimod administered intravenously, PK and PD were determined. […] This finding was consistent with previous oral administrations of 0.25 mg (starting dose of the oral initial period dosing regimen). The results of this clinical study were the following:
# (§3) The safety of the i.v. route in humans was supported by a local tolerance study in rabbit and cardiovascular safety studies in guinea pig, rat and rabbit using i.v. (bolus) route.
# [7] = tested on: Absolute Lymphocyte Count (ALC); assay: i.v. versus oral siponimod study in healthy subjects: PD (ALC) effects; assay type: in vivo, human; conditions: i.v. 0.25 mg over 3 hour and 1 mg over 24 hours vs oral doses at same dose levels
# Procedure: (§4) In said study with siponimod administered intravenously, PK and PD were determined. […] This finding was consistent with previous oral administrations of 0.25 mg (starting dose of the oral initial period dosing regimen).
# [8] = i.v. siponimod study in healthy subjects: cardiac safety; assay type: in vivo, human; conditions: i.v. 0.25 mg over 3 hours and 1 mg over 24 hours (4x0.25 mg/6 hours)
# Procedure: as §2, §4
# [9] = clinical study of siponimod pharmacokinetics in CYP2C9 poor metabolizers; assay type: in vivo, human; conditions: for AUC compared with reference AUC of extensive metabolizers (CYP2C9*1*1): poor metabolizers
# Description: In addition to the previously described benefits, the dosing regimen of the present disclosure has also the advantage to highly reduce the additional risks run by the CYP2C9 poor metabolizer.
# [10] = tested on: peripheral lymphocyte counts; assay: reduction and recovery of peripheral lymphocyte counts; assay type: in vivo
# Procedure: (§5) Siponimod is a second generation S1 P receptor modulator that reduces peripheral lymphocyte counts approximately 4-6 hours (h) after the first dose. […] Siponimod's mode of action is believed to include S1P1-mediated prevention of effector lymphocyte recirculation from lymphatic tissue to sites of inflammation, such as the central nervous system (CNS). In addition, there may be direct beneficial effects in the CNS mediated by S1P1 and/or S1P5. […] Thus, siponimod may display additional beneficial activities in the CNS.
# [11] = half-life and brain penetration of siponimod; conditions: in vivo
# Procedure: as §5
# [12] = randomized, placebo-controlled clinical study of siponimod in ischemic stroke, modified Rankin Scale; assay type: in vivo, human; conditions: two week treatment daily, 7 days i.v. with titration followed by 7 days p.o., 10 mg maintenance
# Description: The clinical study investigates the initial efficacy and safety of siponimod administered on top of standard-of-care compared to placebo in patients with ischemic stroke). This is a randomized, doubled-blinded, placebo-controlled, parallel group study of siponimod on top of standard-of-care for ischemic stroke, consisting of 3 epochs: Screening/Baseline, Treatment, and Follow-Up (see FIG. 1).
# These patients continue to be followed for the remainder of the assessment schedule (Table 3). i.v. Dose Titration
# The siponimod i.v. dosing regimen is as follows: • Day 1: 0.25 mg over 6 hours (×2), then 0.5 mg over 6 hours, then 0.75 mg over 6 hours for a total Day 1 dose of 1.75 mg • Day 2: 1.25 mg over 6 hours, then 2 mg over 6 hours, then 2.5 mg over 6 hours (×2) for a total Day 2 dose of 8.25 mg • Days 3 through Day 7: 2.5 mg over 6 hours (×4) for a total daily dose of 10 mg. • If patient can swallow then the administration from Day 8 to Day 14 is oral.
# The modified Rankin Scale (mRS), is a widely-used, clinician-assessed instrument, and is considered the current standard assessment for stroke outcomes by most Health Authorities. It consists of 6 grades of disability, higher scores indicating more severe disability (0=asymptomatic, 6=dead).
# The mRS score at 90 days after ischemic stroke is the primary endpoint for measuring siponimod efficacy in this study. […]
# [13] = in vivo, iv
# Description: as §3
# CYP2C9, CYP3A4 = conditions: humans; cited from earlier work
structure (smiles),measurement,setting,value
"CCc1cc(/C(C)=N/OCc2ccc(C3CCCCC3)c(C(F)(F)F)c2)ccc1CN1CC(C(=O)O)C1 [siponimod, 1-{4-[(1E)-N-{[4-cyclohexyl-3-(trifluoromethyl)benzyl]oxy}ethanimidoyl]-2-ethylbenzyl}-3-azetidine carboxylic acid]",safety and tolerability of the 25 mg single dose,[1]; 25 mg single dose,favorable safety and tolerability profile
same,single maximum tolerated dose (single MTD),[1]; single dose,25 mg
same,acute ALC response on Day 1 of treatment,[2],dose-dependent decline of ALC
same,adverse events at the maximum investigated multiple dose,[3],symptomatic bradycardia as the only relevant adverse event
same,reduction in heart rate vs. placebo,"[4]; Day 1, either titration regimen",no statistically significant reduction in heart rate vs. placebo
same,reduction in HR,"[4]; Days 3 to 7, DT 1# and DT 2#",minor reductions in HR
same,heart rates versus placebo,"[4]; by Day 9 until Day 12, both titration regimens",comparable to placebo
same,bradycardia or AV conduction effects,"[4]; dose titration regimens DT 1# and DT 2#, 0.25 mg to 10 mg, 12 days, healthy subjects",Neither DT 1# nor DT 2# resulted in clinically significant bradycardia or AV conduction effects
same,heart rates versus placebo,"[4]; non-titration regimen, 10 mg fixed dose once daily",considerable separation from placebo throughout the study
same,bradyarrhythmia at the starting dose,[4]; starting dose 0.25 mg of the DT regimens,not associated with bradyarrhythmia
same,MRI-based efficacy and safety of the dose range,[5]; 1.25 mg to 2 mg dose range orally once daily,"close to maximal efficacy, with a good safety profile"
same,MRI-based efficacy compared to 2 mg,[5]; 10 mg orally once daily,little additional efficacy compared to 2 mg
same,safety profile,[5]; 10 mg orally once daily,worse safety profile
same,dose and time dependence of pharmacokinetics,"[6]; human, in vivo",dose linear and time-independent pharmacokinetics
same,bioavailability,"[6]; human, in vivo, 0.25 mg, oral versus i.v., healthy subjects, read-out: oral bioavailability F %",84%
same,half-life,"[6]; human, in vivo, other: oral and intravenous (range over both routes), oral and i.v. route, read-out: terminal T1/2",27 to 33 h
same,median i.v. Tmax,[6]; i.v. infusion over 3 hours and 24 hours,at the end of the 3 hour and 24 hour infusions
same,geometric mean oral Cmax lower than mean i.v. Cmax,[6]; oral versus i.v.,~48%
same,"magnitude of PD (ALC) effects % Emax, i.v. versus oral",[7],comparable to the effects after oral doses at the same dose levels
same,cardiac safety profile of i.v. infusions,[8],excellent cardiac safety profile
same,Cmax in poor versus extensive metabolizers,[9]; CYP2C9 poor metabolizers,only slightly greater
same,Tmax in poor versus extensive metabolizers,[9]; CYP2C9 poor metabolizers,comparable in poor and extensive metabolizers
same,AUC compared with reference AUC of extensive metabolizers (CYP2C9*1*1),[9]; first value printed (first-named genotype CYP2C9*2*3),approximately 2 fold
same,AUC compared with reference AUC of extensive metabolizers (CYP2C9*1*1),[9]; second value printed (second-named genotype),~4 fold
same,time to reduction of peripheral lymphocyte counts after the first dose,[10]; after the first dose,4 to 6 h
same,recovery of the baseline lymphocyte counts,[10]; after treatment withdrawal,within a week after treatment withdrawal
same,crossing of the blood brain barrier,[11],readily crosses the blood brain barrier
same,"global functioning measured by modified Rankin Scale (mRS) score on Day 90 after ischemic stroke, compared to placebo",[12],improved global functioning
same,cardiovascular effects in i.v. cardiovascular safety studies,[13],Cmax-related transient cardiovascular effects
same,enzymes eliminating siponimod by metabolism,"CYP2C9, CYP3A4","mainly by CYP2C9, followed by CYP3A4"
